How the values were obtained:
[1] = test system: Hepatotoxicity;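 for HepSE Combined Scores: combined hepatic side effect score as listed in the training data of the Drug Induced Liver Injury Prediction System (DILIps)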;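 for HepSE cholelithiasis: hepatic side effect score for cholelithiasis, drawn from the DILIps training data for predicting drug-induced liver injury; call rule not given here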;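 for HepSE hepatitis: Hepatitis-related hepatic side effect score taken from the training data of DILIps, a prediction system for drug-induced liver injury; call rule not given here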;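 for HepSE hepatomegaly: hepatic side effect score for hepatomegaly, taken from the training set of the DILIps drug-induced liver injury prediction system; call rule not given here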;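 for HepSE jaundice: Jaundice-related hepatic side-effect score drawn from the training data of the DILIps (drug-induced liver injury prediction system); call rule not given here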; for HepSE liver disease: call rule not given here;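 for HepSE liver function tests abnormal: hepatic side effect score taken from the DILIps (drug-induced liver injury prediction system) training data, here covering abnormal liver function test findings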
[2] = test system: Hepatotoxicity; remark: listed apart in the source;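 for HepSE Combined Scores: combined hepatic side effect score as listed in the training data of the Drug Induced Liver Injury Prediction System (DILIps)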;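 for HepSE cholelithiasis: hepatic side effect score for cholelithiasis, drawn from the DILIps training data for predicting drug-induced liver injury; call rule not given here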;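 for HepSE hepatitis: Hepatitis-related hepatic side effect score taken from the training data of DILIps, a prediction system for drug-induced liver injury; call rule not given here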;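 for HepSE hepatomegaly: hepatic side effect score for hepatomegaly, taken from the training set of the DILIps drug-induced liver injury prediction system; call rule not given here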;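 for HepSE jaundice: Jaundice-related hepatic side-effect score drawn from the training data of the DILIps (drug-induced liver injury prediction system); call rule not given here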; for HepSE liver disease: call rule not given here;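 for HepSE liver function tests abnormal: hepatic side effect score taken from the DILIps (drug-induced liver injury prediction system) training data, here covering abnormal liver function test findings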
[3] = test system: Hepatotoxicity; remark: listed apart in the source;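 for HepSE Combined Scores: combined hepatic side effect score as listed in the training data of the Drug Induced Liver Injury Prediction System (DILIps)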;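 for HepSE cholelithiasis: hepatic side effect score for cholelithiasis, drawn from the DILIps training data for predicting drug-induced liver injury; call rule not given here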;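 for HepSE hepatitis: Hepatitis-related hepatic side effect score taken from the training data of DILIps, a prediction system for drug-induced liver injury; call rule not given here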;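 for HepSE hepatomegaly: hepatic side effect score for hepatomegaly, taken from the training set of the DILIps drug-induced liver injury prediction system; call rule not given here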;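 for HepSE jaundice: Jaundice-related hepatic side-effect score drawn from the training data of the DILIps (drug-induced liver injury prediction system); call rule not given here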; for HepSE liver disease: call rule not given here
[4] = test system: Hepatotoxicity; remark: listed apart in the source;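 for HepSE Combined Scores: combined hepatic side effect score as listed in the training data of the Drug Induced Liver Injury Prediction System (DILIps)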;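 for HepSE cholelithiasis: hepatic side effect score for cholelithiasis, drawn from the DILIps training data for predicting drug-induced liver injury; call rule not given here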;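 for HepSE hepatitis: Hepatitis-related hepatic side effect score taken from the training data of DILIps, a prediction system for drug-induced liver injury; call rule not given here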;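 for HepSE hepatomegaly: hepatic side effect score for hepatomegaly, taken from the training set of the DILIps drug-induced liver injury prediction system; call rule not given here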;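 for HepSE jaundice: Jaundice-related hepatic side-effect score drawn from the training data of the DILIps (drug-induced liver injury prediction system); call rule not given here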; for HepSE liver disease: call rule not given here
[5] = test system: Hepatotoxicity; remark: listed apart in the source; for HepSE liver disease: call rule not given here
[6] = test system: Hepatotoxicity; remark: listed apart in the source; for HepSE liver disease: call rule not given here
[7] = test system: Hepatotoxicity; remark: listed apart in the source
[8] = test system: Hepatotoxicity; remark: listed apart in the source
[9] = test system: Hepatotoxicity; remark: listed apart in the source
[10] = test system: Hepatotoxicity; remark: listed apart in the source
[11] = test system: Hepatotoxicity; remark: listed apart in the source
[12] = test system: Hepatotoxicity; remark: listed apart in the source
[13] = test system: Hepatotoxicity; remark: listed apart in the source
[14] = test system: Hepatotoxicity; remark: listed apart in the source

Substance | HepSE_cholelithiasis [1] | HepSE_hepatitis [2] | HepSE_jaundice [3] | HepSE_liver disease [4] | HepSE_Combined Scores [5] | HepSE_bilirubinemia [6] | HepSE_hepatomegaly [7] | HepSE_liver function tests abnormal [8] | HepSE_hepatic necrosis [9] | HepSE_cholecystitis [10] | HepSE_liver fatty [11] | HepSE_hepatic failure [12] | HepSE_cirrhosis [13] | HepSE_elevated liver function tests [14]
BLEOMYCIN | 0 | 0 | 0 | 0 | 0 | 0 | 0 | 0 | 0 | 0 | 0 | 0 | 0 | 0
CARBOPLATIN | 0 | 0 | 0 | 0 | 1 | 0 | 0 | 1 | 0 | 0 | 0 | 0 | 0 | 0
CISPLATIN | 0 | 0 | 0 | 0 | 0 | 0 | 0 | 0 | 0 | 0 | 0 | 0 | 0 | 0
COLESEVELAM HYDROCHLORIDE | 0 | 0 | 0 | 0 | 0 | 0 | 0 | 0 | 0 | 0 | 0 | 0 | 0 | 0
COLESTIPOL | 1 | 0 | 0 | 0 | 2 | 0 | 0 | 0 | 0 | 1 | 0 | 0 | 0 | 0
GADOBUTROL | 0 | 0 | 0 | 0 | 0 | 0 | 0 | 0 | 0 | 0 | 0 | 0 | 0 | 0
GADODIAMIDE | 0 | 0 | 0 | 0 | 0 | 0 | 0 | 0 | 0 | 0 | 0 | 0 | 0 | 0
GADOFOSVESET TRISODIUM | 0 | 0 | 0 | 0 | 0 | 0 | 0 | 0 | 0 | 0 | 0 | 0 | 0 | 0
GADOTERIDOL | 0 | 0 | 0 | 0 | 0 | 0 | 0 | 0 | 0 | 0 | 0 | 0 | 0 | 0
GENTAMICIN | 0 | 0 | 0 | 0 | 1 | 0 | 1 | 0 | 0 | 0 | 0 | 0 | 0 | 0
GLATIRAMER ACETATE | 1 | 1 | 0 | 0 | 5 | 0 | 1 | 0 | 0 | 1 | 0 | 0 | 1 | 0
GOLD SODIUM THIOMALATE | 0 | 0 | 1 | 0 | 2 | 0 | 0 | 0 | 0 | 0 | 0 | 1 | 0 | 0
HEPARIN | 0 | 0 | 0 | 1 | 1 | 0 | 0 | 0 | 0 | 0 | 0 | 0 | 0 | 0
HYDROXOCOBALAMIN | 0 | 0 | 0 | 0 | 0 | 0 | 0 | 0 | 0 | 0 | 0 | 0 | 0 | 0
IVERMECTIN | 0 | 0 | 0 | 0 | 0 | 0 | 0 | 0 | 0 | 0 | 0 | 0 | 0 | 0
MANGAFODIPIR | 0 | 0 | 0 | 0 | 0 | 0 | 0 | 0 | 0 | 0 | 0 | 0 | 0 | 0
NITROPRUSSIDE | 0 | 0 | 0 | 0 | 0 | 0 | 0 | 0 | 0 | 0 | 0 | 0 | 0 | 0
NYSTATIN | 0 | 0 | 0 | 0 | 0 | 0 | 0 | 0 | 0 | 0 | 0 | 0 | 0 | 0
OXALIPLATIN | 0 | 0 | 0 | 1 | 2 | 1 | 0 | 0 | 0 | 0 | 0 | 0 | 0 | 0
PORFIMER SODIUM | 0 | 0 | 1 | 0 | 1 | 0 | 0 | 0 | 0 | 0 | 0 | 0 | 0 | 0
